This is an account of results in ChEMBL document CHEMBL4043151, “Synthesis and biological evaluation of Aspergillomarasmine A derivatives as novel NDM-1 inhibitor to overcome antibiotics resistance” (Bioorg Med Chem, 2017).

One series relates to Klebsiella pneumoniae. Nature of the series: Growth inhibition of Klebsiella pneumoniae ATCC BAA-2146.
Series [1] deals with Klebsiella pneumoniae ATCC BAA-2146. Nature of the series: Inhibition of NDM1 in Klebsiella pneumoniae ATCC BAA-2146 assessed as potentiation of meropenem-induced microbial growth inhibition by measuring compound MIC by cell-based synergy screening assay.
Series [2] has the same test system. In words: Inhibition of NDM1 in Klebsiella pneumoniae ATCC BAA-2146 assessed as rescue concentration needed to fully regain activity of meropenem at clinical breakpoint (2.5 uM) by cell-based synergy screening assay.
The nature of series [3]: Inhibition of NDM1 (unknown origin) pre-incubated for 10 mins before nitrocefin substrate addition. To be noted: for pIC50: read-out: IC50.
Series [4] has as its system Klebsiella pneumoniae ATCC BAA-2146. Nature of the series: Inhibition of NDM1 in Klebsiella pneumoniae ATCC BAA-2146 assessed as potentiation of meropenem-induced microbial growth inhibition by measuring meropenem MIC by cell-based synergy screening assay (Rvb (meropenem MIC alone) = 65 microg/ml).
For series [5] the test system is unchanged. In words: Inhibition of NDM1 in Klebsiella pneumoniae ATCC BAA-2146 assessed as potentiation of meropenem-induced microbial growth inhibition by cell-based synergy screening assay.
For series [6] the test system is unchanged. Nature of the series: Inhibition of NDM1 in Klebsiella pneumoniae ATCC BAA-2146 assessed as potentiation of meropenem-induced microbial growth inhibition by measuring meropenem MIC by cell-based synergy screening assay (Rvb (meropenem MIC alone) = 2 microg/ml).
The test system is the same in series [7]. In words: Inhibition of NDM1 in Klebsiella pneumoniae ATCC BAA-2146 assessed as potentiation of meropenem-induced microbial growth inhibition by measuring meropenem MIC by cell-based synergy screening assay (Rvb (meropenem MIC alone) = 32.5 microg/ml).
The test system is the same in series [8]. In words: Inhibition of NDM1 in Klebsiella pneumoniae ATCC BAA-2146 assessed as potentiation of meropenem-induced microbial growth inhibition by measuring meropenem MIC by cell-based synergy screening assay (Rvb (meropenem MIC alone) = 8 microg/ml).
Series [9] shares this test system. Nature of the series: Inhibition of NDM1 in Klebsiella pneumoniae ATCC BAA-2146 assessed as potentiation of meropenem-induced microbial growth inhibition by measuring meropenem MIC by cell-based synergy screening assay (Rvb (meropenem MIC alone) = 16.25 microg/ml).

pIC50: −log10 of the molar value. In brackets after ≈: the same amount, converted by molar mass. Bounds are passed on as bounds.

On to `COC(=O)C[C@H](NC[C@H](NC[C@H](N)C(=O)O)C(=O)O)C(=O)OC`, for which the MIC with Klebsiella pneumoniae was over 298 µg/mL; in [1], over 298 µg/mL; in series [4], 65 µg/mL. In series [2], the Activity was over 100 µM. For the same compound, the IC50 result in series [3] is “Not Active”. In [5], the fractional inhibitory concentration index (FICI) was determined as 2.
Broadly, the pIC50 is −log10 of the IC50, conventionally taken in molar units. `N[C@@H](CN[C@@H](CN[C@@H](CC(=O)O)C(=O)O)C(=O)O)C(=O)O`: the MIC is 62.5 µg/mL (≈ 203 µM) in the series with Klebsiella pneumoniae, over 250 µg/mL in series [1] and 65 µg/mL in series [6]. Besides, in series [2], the Activity amounted to 25 µM. For the same compound, the pIC50 in series [3] is 5.15. Also, the fractional inhibitory concentration index (FICI) in series [5] is under 0.28.
Regarding `C[C@H](CC(=O)O)NC[C@H](NC[C@H](N)C(=O)O)C(=O)O`, the MIC in the series with Klebsiella pneumoniae was 125 µg/mL (≈ 451 µM); in series [1], over 250 µg/mL; in series [7] it was 65 µg/mL. Further, in series [2], the Activity was over 100 µM. Moreover, in [3], the negative-log IC50 (pIC50) is 4.03. The fractional inhibitory concentration index (FICI) in [5] was under 1.
Consider `N[C@H](CN[C@H](CN[C@@H](CC(=O)O)C(=O)O)C(=O)O)C(=O)O`, for which the MIC in the series on Klebsiella pneumoniae was 125 µg/mL (≈ 407 µM); in [1], over 250 µg/mL; in [8] it was 65 µg/mL. Further, the Activity in series [2] stood at 50 µM. Further, in [3], the pIC50 is 5.09. The fractional inhibitory concentration index (FICI) in series [5] was under 0.62.
Regarding `N[C@H](CN[C@@H](CN[C@@H](CC(=O)O)C(=O)O)C(=O)O)C(=O)O`, the MIC is 65 µg/mL in series [9], 62.5 µg/mL (≈ 203 µM) with Klebsiella pneumoniae and over 250 µg/mL in [1]. Also, the Activity in [2] was found to be 50 µM. For the same compound, the negative-log IC50 (pIC50) in [3] was 5.03. Besides, the fractional inhibitory concentration index (FICI) in [5] was under 0.5.
Turning to `N[C@@H](CN[C@@H](CN1CCC[C@@H]1C(=O)O)C(=O)O)C(=O)O`, the MIC with Klebsiella pneumoniae was 406 µg/mL (≈ 1400 µM); in series [1], over 406 µg/mL; in series [7], 65 µg/mL. Moreover, the Activity in series [2] was over 100 µM. In addition, the negative logarithm of the IC50 (pIC50) in [3] was 5.05. In [5], the fractional inhibitory concentration index (FICI) is under 1.5.
Regarding `C[C@@H](CN[C@@H](CN[C@@H](CC(=O)O)C(=O)O)C(=O)O)C(=O)O`, the figures for the MIC (in the series on Klebsiella pneumoniae; in series [1]; in series [8]) were 125 µg/mL (≈ 408 µM), over 250 µg/mL and 65 µg/mL, respectively. For the same compound, the Activity in series [2] was found to be 50 µM. Besides, the negative logarithm of the IC50 (pIC50) in series [3] is 4.98. Moreover, the fractional inhibitory concentration index (FICI) in [5] is under 0.62.
Consider `N[C@@H](CN[C@@H](CN1CCC[C@H]1C(=O)O)C(=O)O)C(=O)O`, for which the MIC in the series with Klebsiella pneumoniae is over 280 µg/mL; in [1] it was over 280 µg/mL; in series [4] it was 65 µg/mL. The Activity in series [2] was over 100 µM. Besides, the pIC50 in series [3] is 4.89. The fractional inhibitory concentration index (FICI) in [5] worked out at 2.
For `COC(=O)[C@H](CN[C@@H](CC(=O)O)C(=O)O)NC[C@H](N)C(=O)OC`, the figures for the MIC (with Klebsiella pneumoniae; in series [1]; in series [4]) were over 298 µg/mL, over 298 µg/mL and 65 µg/mL, respectively. In series [2], the Activity is over 100 µM. The pIC50 in series [3] is 4.76. Further, in series [5], the fractional inhibitory concentration index (FICI) came to 2.
Turning to `C[C@H](NC[C@H](NC[C@H](N)C(=O)O)C(=O)O)C(=O)O`, the MIC with Klebsiella pneumoniae was 250 µg/mL (≈ 950 µM); in [1] it was over 250 µg/mL; in series [7], 65 µg/mL. The Activity in [2] was over 100 µM. In [3], the negative logarithm of the IC50 (pIC50) was 4.66. In addition, the fractional inhibitory concentration index (FICI) in series [5] was under 1.5.
As for `N[C@@H](CN[C@H](CN[C@@H](CC(=O)O)C(=O)O)C(=O)O)C(=O)O`, the MIC was 125 µg/mL (≈ 407 µM) against Klebsiella pneumoniae, over 250 µg/mL in [1] and 65 µg/mL in [7]. For the same compound, the Activity in [2] was 100 µM. The pIC50 in series [3] is 4.98. In addition, the fractional inhibitory concentration index (FICI) in series [5] was under 1.
